Measurements: patent US20130289077A1 (priority 2010, published 2013)

Assays:
[1] = Measurement of logP by HPLC on reversed phase columns (EEC directive 79/831 Annex V.A8); type: physicochemical; conditions: pH 2.7, 0.1% formic acid in water / acetonitrile gradient
Phytophthora infestans = type: in vivo; conditions: tomato young plants, preventive spray, 100 ppm of active ingredient, evaluated 7 days after inoculation; 0% = untreated control, 100% = no disease

| SMILES | LogP (HCOOH) [1] | Eff. % (Phytophthora infestans) | chromatographic logP ([1]; reversed phase HPLC column, read-out: LogP (HCOOH)) |
| --- | --- | --- | --- |
| CCCCC(C)=NOC(=O)Nc1cccc(CON=C(c2ccccc2)c2nnnn2C)n1 [Example 2] | 3.96 | 92% | – |
| CCCCCCC(C)=NOC(=O)Nc1cccc(CON=C(c2ccccc2)c2nnnn2C)n1 [Example 11] | 4.79 | 90% | – |
| CC(C)=NOC(=O)Nc1cccc(CON=C(c2ccccc2)c2nnnn2C)n1 [Example 14] | – | 92% | – |
| Cn1nnnc1C(=NOCc1cccc(NC(=O)ON=C(CCl)C(C)(C)C)n1)c1ccccc1 [Example 8] | – | 93% | – |
| CC(=NOC(=O)Nc1cccc(CON=C(c2ccccc2)c2nnnn2C)n1)C(C)(C)C [Example 7] | – | 95% | – |
| CC(=NOC(=O)Nc1cccc(CON=C(c2ccccc2)c2nnnn2C)n1)C1CC1 [Example 18] | – | 93% | – |
| CC(=NOC(=O)Nc1cccc(CON=C(c2ccccc2)c2nnnn2C)n1)c1ccccc1 [Example 3] | – | 94% | – |
| CCC(=NOC(=O)Nc1cccc(CON=C(c2ccccc2)c2nnnn2C)n1)c1ccccc1 [Example 4] | – | 97% | – |
| CCCCCC(C)=NOC(=O)Nc1cccc(CON=C(c2ccccc2)c2nnnn2C)n1 [Example 20] | 4.39 | 95% | – |
| CC(=NOC(=O)Nc1cccc(CON=C(c2ccccc2)c2nnnn2C)n1)C(C)C [Example 13] | – | 95% | – |
| CCC(C)=NOC(=O)Nc1cccc(CO/N=C(/c2ccccc2)c2nnnn2C)n1 [Example 1, [(butan-2-ylideneamino)oxy]({6-[({[(Z)-(1-methyl-1H-tetrazol-5-yl)(phenyl)methylene]amino}oxy)methyl]pyridin-2-yl}amino)methanone] | – | 95% | 3.27 |
